Measured values published in US20150344457A1, “METHODS OF INHIBITING PRMT5” (EPIZYME, INC., priority 2012, published 2015).

Tests used:
[1] = target: T1, PRMT5/MEP50 (Homo sapiens, UniProt O14744); assay: PRMT5 Biochemical Assay (PRMT5/MEP50 enzyme assay on peptide substrate, 3H-SAM Flashplate); conditions: Table A-2; PRMT5/MEP50 4 nM, 3H-SAM 75 nM, peptide 40 nM; read-out: Biochemical IC50
T1 construct: Expressed full-length human Flag-PRMT5/6His-MeP50 protein complex was purified; made in house; host or cells: Spodoptera frugiperda (SF9) insect cells, baculovirus (pDEST8)

[2] = system: Z-138 cells; assay: Z-138 Proliferation Assay (Cell Titer Glo, 5 days); assay type: cell-based; conditions: Homo sapiens, 120 h, Table A-2, 5 days, top concentration 20 μM
Method in brief: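 Exponentially growing Z-138 cells (10,000 cells/ml) in RPMI 1640 with 10% FBS are exposed to nine-point 3-fold dilutions (final top concentration 20 μM, 0.2% DMSO) for 5 days at 37° C. Viability is measured as ATP by CellTiter-Glo luminescence. The 50% inhibitory concentration comes from a 4-parameter fit.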

T1 sequence (O14744 with tags, fused parts or gaps): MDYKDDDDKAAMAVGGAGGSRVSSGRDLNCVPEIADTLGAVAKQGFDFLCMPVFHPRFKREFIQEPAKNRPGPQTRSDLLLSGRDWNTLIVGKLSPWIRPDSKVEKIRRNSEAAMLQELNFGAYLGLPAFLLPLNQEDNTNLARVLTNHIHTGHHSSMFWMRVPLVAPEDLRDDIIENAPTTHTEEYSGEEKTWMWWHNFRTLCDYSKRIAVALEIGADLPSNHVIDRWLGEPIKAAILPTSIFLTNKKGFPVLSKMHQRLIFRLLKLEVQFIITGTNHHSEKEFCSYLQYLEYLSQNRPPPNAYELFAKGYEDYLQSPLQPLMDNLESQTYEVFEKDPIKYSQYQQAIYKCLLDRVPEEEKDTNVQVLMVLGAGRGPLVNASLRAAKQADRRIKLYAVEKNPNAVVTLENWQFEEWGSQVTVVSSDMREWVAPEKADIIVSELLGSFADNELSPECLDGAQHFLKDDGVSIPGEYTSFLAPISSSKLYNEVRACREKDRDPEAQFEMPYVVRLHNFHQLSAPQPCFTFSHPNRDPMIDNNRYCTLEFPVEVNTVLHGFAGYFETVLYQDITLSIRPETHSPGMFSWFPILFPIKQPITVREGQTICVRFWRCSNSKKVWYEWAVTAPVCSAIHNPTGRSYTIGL
T1 sequence (Q9BQA1 with tags, fused parts or gaps partner limits assumed): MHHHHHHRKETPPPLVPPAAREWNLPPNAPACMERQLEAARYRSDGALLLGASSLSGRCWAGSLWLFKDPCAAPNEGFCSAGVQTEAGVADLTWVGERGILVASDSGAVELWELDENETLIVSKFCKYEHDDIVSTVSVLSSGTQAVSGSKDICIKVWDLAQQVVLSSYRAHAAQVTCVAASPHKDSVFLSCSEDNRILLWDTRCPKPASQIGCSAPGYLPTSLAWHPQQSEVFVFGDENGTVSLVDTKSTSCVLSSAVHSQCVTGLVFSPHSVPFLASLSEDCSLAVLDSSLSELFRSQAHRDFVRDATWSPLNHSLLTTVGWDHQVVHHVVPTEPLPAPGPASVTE

| Structure (SMILES) | IC50 [1] | EC50 [2] |
| --- | --- | --- |
| O=C(COc1cccc2c1CNCC2)NCC(O)CN1CCc2ccccc2C1 (stereo not drawn) [Compound A119] | < 100 nM | 10000 to 50000 nM |
| CNS(=O)(=O)c1ccccc1OCC(=O)NCC(O)CN1CCc2ccccc2C1 (stereo not drawn) [Compound A123] | < 100 nM | 1000 to 10000 nM |
| O=C(COc1cccc2c1OCC(=O)N2)NCC(O)CN1CCc2ccccc2C1 (stereo not drawn) [Compound A124] | 1000 to 10000 nM | > 20000 nM |
| CN(C)c1ncccc1OCC(=O)NCC(O)CN1CCc2ccccc2C1 (stereo not drawn) [Compound A127] | 101 to 1000 nM | > 20000 nM |
| CN1CCCC(c2ccccc2OCC(=O)NCC(O)CN2CCc3ccccc3C2)C1 (stereo not drawn) [Compound A130] | < 100 nM | 1000 to 10000 nM |
| O=C(COc1ccccc1-c1ncc[nH]1)NCC(O)CN1CCc2ccccc2C1 (stereo not drawn) [Compound A137] | 101 to 1000 nM | > 20000 nM |
| CN(c1cccc(OCC(=O)NCC(O)CN2CCc3ccccc3C2)c1)S(C)(=O)=O (stereo not drawn) [Compound A142] | 101 to 1000 nM | > 20000 nM |

Second part, led by results:

| IC50 [1] | Structure (SMILES) | EC50 [2] |
| --- | --- | --- |
| 101 to 1000 nM | Cn1cc2c(OCC(=O)NCC(O)CN3CCc4ccccc4C3)cccc2n1 (stereo not drawn) [Compound A118] | > 20000 nM |
| 101 to 1000 nM | CN1CCc2cccc(OCC(=O)NCC(O)CN3CCc4ccccc4C3)c2C1 (stereo not drawn) [Compound A120] | > 20000 nM |
| 101 to 1000 nM | CC(=O)N1CCN(S(=O)(=O)c2ccccc2OCC(=O)NCC(O)CN2CCc3ccccc3C2)CC1 (stereo not drawn) [Compound A122] | > 20000 nM |
| 101 to 1000 nM | O=C(COc1cccc2ncc(=O)[nH]c12)NCC(O)CN1CCc2ccccc2C1 (stereo not drawn) [Compound A129] | > 20000 nM |
| 101 to 1000 nM | CN1CCC(c2ccccc2OCC(=O)NCC(O)CN2CCc3ccccc3C2)CC1 (stereo not drawn) [Compound A134] | > 20000 nM |
